Consider 15 compounds from patent publication US20080188481A1 (priority 2002, published 2008).

Molecules are shown by their SMILES. pEC50: −log10 of the molar value.

The experiment concerns HIV-1 single-round infectious reporter virus. The experiment in a line: Single-round infectious HIV-1 luciferase reporter virus infection of HeLa CD4 cells (antiviral EC50). The format is cell-based. As to conditions: Human immunodeficiency virus 1, HeLa, 72 h, read-out: EC50 Group from Table 1. The method, then:
• Virus production—Human embryonic Kidney cell line, 293T, was propagated in Dulbecco's Modified Eagle Medium (Invitrogen, Carlsbad, Calif.) containing 10% fetal Bovine serum (FBS, Sigma, St. Louis, Mo.). • Virus infection—Human epithelial cell line, HeLa, expressing the HIV-1 receptor CD4 was propagated in Dulbecco's Modified Eagle Medium (Invitrogen, Carlsbad, Calif.) containing 10% fetal Bovine serum (FBS, Sigma, St. Louis, Mo.) and supplemented with 0.2 mg/mL Geneticin (Invitrogen, Carlsbad, Calif.). Virus-Single-round infectious reporter virus was produced by co-transfecting human embryonic Kidney 293 cells with an HIV-1 envelope DNA expression vector and a proviral cDNA containing an envelope deletion mutation and the luciferase reporter gene inserted in place of HIV-1 nef sequences (Chen et al, Ref. 41). Transfections were performed using lipofectAMINE PLUS reagent as described by the manufacturer (Invitrogen, Carlsbad, Calif.).
• 1. HeLa CD4 cells were plated in 96 well plates at a cell density of 1×10^4 cells per well in 100 μl Dulbecco's Modified Eagle Medium containing 10% fetal Bovine serum and incubated overnight. • 2. Compound was added in a 2 μl dimethylsulfoxide solution, so that the final assay concentration would be ≦10 μM. • 3. 100 μl of single-round infectious reporter virus in Dulbecco's Modified Eagle Medium was then added to the plated cells and compound at an approximate multiplicity of infection (MOI) of 0.01, resulting in a final volume of 200 μl per well. • 4. Virally-infected cells were incubated at 37 degrees Celsius, in a CO2 incubator, and harvested 72 h after infection. • 5. Viral infection was monitored by measuring luciferase expression from viral DNA in the infected cells using a luciferase reporter gene assay kit, as described by the manufacturer (Roche Molecular Biochemicals, Indianapolis, Ind.). Infected cell supernatants were removed and 50 μl of lysis buffer was added per well. After 15 minutes, 50 μl of freshly-reconstituted luciferase assay reagent was added per well. Luciferase activity was then quantified by measuring luminescence using a Wallac microbeta scintillation counter. • 6. The percent inhibition for each compound was calculated by quantifying the level of luciferase expression in cells infected in the presence of each compound as a percentage of that observed for cells infected in the absence of compound and subtracting such a determined value from 100. • 7. An EC50 provides a method for comparing the antiviral potency of the compounds of this invention. The effective concentration for fifty percent inhibition (EC50) was calculated with the Microsoft Excel Xlfit curve fitting software. For each compound, curves were generated from percent inhibition calculated at 10 different concentrations by using a four paramenter logistic model (model 205). Table 1 is the key for the data in Table 2.
A general note: Reporter assays use an easily measured gene product as a stand-in for the process of interest.
As a reminder, the pEC50 is −log10 of the EC50, conventionally taken in molar units. As for `COc1cnc(-c2cnccn2)c2[nH]cc(C(=O)C(=O)N3CCC(=C(C(N)=O)c4ccccc4)CC3)c12` [Example 49], the pEC50 is more than 6.00.

`COc1ncc(OC)c2c(C(=O)C(=O)N3CCC(=C(C#N)c4ccsc4)CC3)c[nH]c12` [Example 126, 1-[4-(1-Cyano-1-thien-3-yl-methylene)-piperidin-1-yl]-2-(4,7-dimethoxy-6-azaindol-3-yl)-ethane-1,2-dione]: the pEC50 was more than 6.00.

For `COc1cnc(-n2ccc(C)n2)c2[nH]cc(C(=O)C(=O)N3CCC(=C(c4ccccc4)c4nccs4)CC3)c12` [Example 95], the pEC50 was more than 6.00.

Consider `COc1cnc(-c2cnccn2)c2[nH]cc(C(=O)C(=O)N3CCC(=C(c4ccccc4)c4ccc(F)cc4)CC3)c12` [Example 93], for which the pEC50 is more than 6.00.

For `COc1ncc(OC)c2c(C(=O)C(=O)N3CCC(=C(C#N)c4coc5ccccc45)CC3)c[nH]c12` [Example 127, 1-[4-(1-Cyano-1-benzofuran-3-yl-methylene)-piperidin-1-yl]-2-(4,7-dimethoxy-6-azaindol-3-yl)-ethane-1,2-dione], the pEC50 was more than 6.00.

Turning to `COc1ncc(OC)c2c(C(=O)C(=O)N3CCC(=C(c4ccccc4)c4ccccc4)CC3)c[nH]c12` [Example 57], the pEC50 is more than 6.00.

For `COc1ncc(OC)c2c(C(=O)C(=O)N3CCC(=C(C#C[Si](C)(C)C)c4ccccc4)CC3)c[nH]c12` [Example 112, 1-[4-(1-Phenyl-1-(2-trimethylsilylethyn-1-yl)-methylene)-piperidin-1-yl]-2-(4,7-dimethoxy-6-azaindol-3-yl)-ethane-1,2-dione], the pEC50 was more than 6.00.

For `COc1ncc(OC)c2c(C(=O)C(=O)N3CCC(=C(c4ccccc4)c4ccc(SC)cc4)CC3)c[nH]c12` [Example 63], the pEC50 was more than 6.00.

On to `COc1ncc(OC)c2c(C(=O)C(=O)N3CCC(=C(c4ccccc4)c4c(C)noc4C)CC3)c[nH]c12` [Example 60], for which the pEC50 is more than 6.00.

Regarding `COc1ncc(OC)c2c(C(=O)C(=O)N3CCC(=C(C#N)c4c(C)sc(C)c4C)CC3)c[nH]c12` [Example 125, 1-[4-(1-Cyano-1-(2,3,5-trimethylthien-4-yl)-methylene)-piperidin-1-yl]-2-(4,7-dimethoxy-6-azaindol-3-yl)-ethane-1,2-dione], the pEC50 was less than 5.30.

In the case of `N#CC(=C1CCN(C(=O)C(=O)c2c[nH]c3c(-n4ccnn4)ncc(F)c23)CC1)c1ccccc1` [Example 129a, {1-[2-(4-Fluoro-7-[1,2,3]triazol-1-yl-1H-pyrrolo[2,3-c]pyridin-3-yl)-2-oxo-acetyl]-piperidin-4-ylidene}-phenyl-acetonitrile], the negative-log EC50 (pEC50) was more than 6.00.

Turning to `COc1ncc(OC)c2c(C(=O)C(=O)N3CCC(=C(C#Cc4ccccc4)c4ccccc4)CC3)c[nH]c12` [Example 118, 1-[4-(1-Phenyl-1-(2-phenylethyn-1-yl)-methylene)-piperidin-1-yl]-2-(4,7-dimethoxy-6-azaindol-3-yl)-ethane-1,2-dione], the pEC50 was more than 6.00.

Consider `N#CC(=C1CCN(C(=O)C(=O)c2c[nH]c3c(Cl)ccnc23)CC1)c1ccccc1` [Example 101, {1-[2-(7-Chloro-1H-pyrrolo[3,2-b]pyridin-3-yl)-2-oxo-acetyl]-piperidin-4-ylidene}-phenyl-acetonitrile], for which the negative-log EC50 (pEC50) is more than 6.00.

Turning to `COc1ncc(OC)c2c(C(=O)C(=O)N3CCC(=C(C#CC(C)C)c4ccccc4)CC3)c[nH]c12` [Example 114, 1-[4-(1-Phenyl-1-(2-isopropylethyn-1-yl)-methylene)-piperidin-1-yl]-2-(4,7-dimethoxy-6-azaindol-3-yl)-ethane-1,2-dione], the pEC50 is more than 6.00.

For `COc1ncc(OC)c2c(C(=O)C(=O)N3CCC(=C(c4ccccc4)c4nccs4)CC3)c[nH]c12` [Example 49a, 1-[4-(1-Phenyl-1-(thiazol-2-yl)-methylene)-piperidin-1-yl]-2-(4,7-dimethoxy-6-azaindol-3-yl)-ethane-1,2-dione], the negative logarithm of the EC50 (pEC50) was more than 6.00.
